Patent US20220168301A1, “METHODS FOR TREATING SYMPTOMATIC ORTHOSTATIC HYPOTENSION” (Cerecor Inc, priority 2019, published 2022)
Read-outs that look alike come from different tables or passages of the source.

Tests used:
[1] = tested on: patients with moderate Parkinson's disease; conditions: single oral dose 7 mg; cited from earlier work
[2] = Plasma pharmacokinetics of single escalating doses in patients with symptomatic nOH associated with Parkinson's disease; assay type: in vivo, human; conditions: for Cmax / AUC: human, plasma, oral; for AUC: 6-hour PK collection period, read-out: Area Under the Curve (AUC)
Experimental: Subjects were dosed on five separate occasions, approximately 7-10 days apart, with one of four single escalating doses of CERC-301 or placebo and underwent an orthostatic challenge test to assess the safety, tolerability, effect on blood pressure, and PK. Subjects also completed a symptomatic assessment following the orthostatic challenge. Subjects were enrolled and randomized based on the dosing schedule in Table 4:
Investigational product was administered as CERC-301 4 mg tablets and matching placebo. Study drug was administered orally (P.O) with water approximately 1.5 hours after the patient consumed breakfast.
PK samples were drawn pre-dose and at 0.5, 1, 2, 4 and 6 hours post-dose. All blood draws were done after blood pressure measures are taken.
Blood samples for plasma concentration analysis of CERC-301 were collected at pre-dose and 0.5, 1, 2, 4 and 6 hours post-dose at all visits.
Blood sampling, processing, storage, and shipping instructions were provided in the Laboratory Manual. The plasma samples were analyzed via liquid chromatography tandem mass spectrometry (LC-MS/MS) following a validated method.
PK parameter estimates for CERC 301 were calculated using standard non-compartmental methods of analysis.

healthy subjects = test: 24-hour ambulatory blood pressure monitoring (ABPM), 7-day once-daily dosing study in healthy subjects; assay type: in vivo, human
Experimental: The effects of CERC-301 were assessed in a randomized, double-blind, placebo-controlled, parallel-group, three-part safety, pharmacokinetic, and pharmacodynamic study in healthy human subjects.
One of the primary objective of the study was to investigative the dose-response relationship between CERC-301 and pharmacodynamic (PD) effects on blood pressure [BP] in healthy subjects. Secondary objectives included the investigation of the safety and tolerability of CERC-301 over 7 days of once-daily administration and the investigation of a single dose and 7-day repeated dose pharmacokinetic (PK) profiles of CERC-301, and to explore sub-group (age or gender) effects on other safety parameters, such as adverse events (AEs).
The study was a randomized, double-blind, placebo-controlled parallel-group, three-part, repeated dose in-patient study investigating the safety, tolerability, PK, and PD of CERC-301 in healthy subjects.
(§1) Part 1: After the screening period, healthy, young male and female subjects were randomly assigned to dose groups as shown in Table 1. Randomized subjects participated in a time-matched baseline BP monitoring day (Day −1), once-daily dosing with study drug during which safety, PK, and PD assessments were performed on Days 1-7, discharge on Day 8, a follow-up period for PK and safety on Days 9-11, and end-of-study visit on Day 16. Each parallel dose group was balanced for gender (approximately equal number of males and females in each group).
as §1, with “2:” for “1:”, “young and intermediate age” for “young”, “2.” for “1.”
Part 3: After the screening period, healthy, young and elderly male and female subjects were randomly assigned to dose groups as shown in Table 3.
as §1, with “Randomized” for “Part 1: After the screening period, healthy, young male and female subjects were randomly assigned to dose groups as shown in Table 1. Randomized”
Subjects received 8, 12, 16 or 20 mg CERC-301 or matching placebo once-daily for 7 days.
PD endpoints included the following […]: • 24-hour Ambulatory Blood Pressure Monitoring (ABPM) • Observed values and time matched change from baseline (pre-dose) of 24-hour ABPM • Mean 24 hours, Sleep and Awake systolic and diastolic BPs. • Mean Arterial Pressure (MAP), pulse pressure, and heart rate. • Observed values and change from baseline of sub-scale scores and Total Mood Disturbance (TMD) scores from Profiles of Mood States (POMS)

[3] = 20 mg, 24 hours postdose, after 7 days of dosing

Cmax dose proportionality ([2]; 8 to 20 mg single doses (FIG. 2)): generally dose proportional
Tmax ([2]; all dosing groups (8, 12, 16, 20 mg single dose P.O.)): approximately 2 hours post dose
Cmax ([2]; 8 mg single dose): 108 ng/mL
AUC ([2]; 8 mg single dose): 473 ng·h/mL
Cmax ([2]; 12 mg single dose): 161 ng/mL
AUC ([2]; 12 mg single dose): 795 ng·h/mL
Cmax ([2]; 16 mg single dose): 187 ng/mL
AUC ([2]; 16 mg single dose): 954 ng·h/mL
Cmax ([2]; 20 mg single dose): 266 ng/mL
AUC ([2]; 20 mg single dose): 1240 ng·h/mL
SMILES: Cc1ccc(COC(=O)N2CC[C@H](CNc3ncccn3)[C@H](F)C2)cc1 [CERC-301]
Plasma concentration relative to target [1]: > 400 nM
Systolic and diastolic blood pressure relative to placebo [1]: increases in systolic and diastolic blood pressure relative to placebo
Tolerability [1]: generally well tolerated
Average nighttime SBP increase (healthy subjects; 16 mg, Day 7): 2 mm Hg
Mean hourly average DBP change from baseline (healthy subjects; [3]): approximately 10 mm Hg
Mean hourly average SBP change from baseline (healthy subjects; [3]): approximately 14 mm Hg
Maximum average hourly daytime ambulatory DBP (healthy subjects; 20 mg, Day 1): approximately 15 mm Hg
Maximum average hourly daytime ambulatory SBP (healthy subjects; 20 mg, Day 1): approximately 16 mm Hg
Maximum average hourly daytime ambulatory DBP (healthy subjects; 20 mg, Day 4): approximately 15 mm Hg
Maximum average hourly daytime ambulatory SBP (healthy subjects; 20 mg, Day 4): ~21 mm Hg
Maximum average hourly daytime ambulatory DBP (healthy subjects; 20 mg, Day 7): ~19 mm Hg
Maximum average hourly daytime ambulatory SBP (healthy subjects; 20 mg, Day 7): ~24 mm Hg
